Data published in publication PMC6269719, “Extraction of Antioxidant Components from Bidens pilosa Flowers and Their Uptake by Human Intestinal Caco-2 Cells” (Molecules, 2013).

Legend:
[1] = Bidirectional transport across Caco-2 cell monolayers; details: human, Caco-2, pH 7.4
Protocol: (§1) To investigate the intestinal absorption and transport properties of the three DiCQAs and three PGAs, 14-day cultured Caco-2 monolayer cells were used for the bidirectional transport study.
(§2) It was cultured in Dulbecco’s Modified Eagle Medium (DMEM medium, Hyclone, Logan, UT, USA) containing high glucose (4.5 g/L) plus 10% fetal bovine serum (Biological Industries, Beit Haemek, Israel), 1% L-glutamine and 1% penicillin-streptomycin (Hyclone) at 37 °C, 5% CO2 with constant humidity controlled environment. The medium was replaced three times a week during cell growth and differentiation. Cells used in this study were between passages 25 and 40.
(§3) After the cells in the flask grew to 90%–100% confluency, cells were trypsinized and seeded on 12 mm transwells with 0.4 µm pore polyester membrane insert (product #3460, Corning Inc., Corning, NY, USA) at a density 2 × 10^5 cells/mL. Culture medium (0.5 mL and 1.5 mL, respectively) was added into the space between the transwell and the plate. The culture was incubated at 37 °C under 5% CO2 atmosphere and the medium was changed fresh every 48 h. The transepithelial electrical resistance (TEER) was measured with Millicell-ERS epithelial Voltohmmeter (Millipore, Bedford, MA, USA), which was reflected to the tightness of intercellular junctions and only cells with TEER (in Ω/cm^2) >300 Ω/cm^2 (at 14 day) were used for permeability study.
(§4) Before conducting the permeation test, the trasnswell insert was emerged and rinsed in 25 mM HEPES (pH 7.4 Hank’s Balanced Salt Solution, HBSS) and rinsed twice at 37 °C under 5% CO2 atmosphere, each time for 30 min. The paracellular marker molecule mannitol (low permeability), propranolol (highly permeability), and EM fraction (1 mg/mL) were separately dissolved in DMSO and diluted with HBSS to final concentrations of 50 μM, 10 μM, and 1 mg/mL (at non-cytotoxic concentration), respectively. The solutions were respectively transferred into the apical and basolateral zones of the transwell insert with the other side filled up with HBSS. The same pH (7.4) was used both in apical-to-basolateral (A→B) and basolateral-to-apical (B→A) transport directions during each experiment. The whole apparatus was incubated at 37 °C under 5% CO2 atmosphere and the permeation was examined at time point 5, 15, 30, and 60 min, respectively. Permeates obtained from various direction were analyzed with HPLC and LC-MS according to the aforementioned method. The apparent permeability coefficients (Papp, cm/s) and the efflux ratio were calculated according to the literature: Papp = (V/A × C0) × (dQ/dt) where V is the volume of receiver part (0.5 mL and/or 1.5 mL).
(§5) A is the surface area of the cell monolayer (1.1 cm^2).
(§6) C0 is the initial concentration of the extract (1 mg/mL).
(§7) dQ/dt is the cumulative transport rate (mg/mL/min). Efflux ratio = Papp,B→A/Papp,A→B

Caco-2 cells = assay: as above; details: pH 7.4, up to 60 min; for Papp, apical to basolateral flux: A→B, compounds tested within EM 1 mg/mL, mannitol 50 μM, 14-day monolayers
Protocol: as §1, §2, §3, §4, §5, §6, §7

db/db mice = tested on: db/db mice; set-up: method as in doi:10.1016/j.jfca.2010.03.025; details: i.p., compared to the other two polyacetylenic glucosides; cited from earlier work

## CC(C)NCC(O)COc1cccc2ccccc12 (centres unmarked) [propranolol, reference compound]
[1]
  Papp at 60 min, 10 μM: 39.4 ± 4.12 ×10⁻⁶ cm/s

## O=C(/C=C/c1ccc(O)c(O)c1)O[C@H]1[C@H](O)C[C@](O)(C(=O)O)C[C@H]1OC(=O)/C=C/c1ccc(O)c(O)c1 [DiCQA 3, 4,5-di-O-caffeoylquinic acid]
Caco-2 cells
  Papp, apical to basolateral flux: higher than the paracellular transport marker mannitol

## CC#CC#CC#C/C=C/CCC(CCO)O[C@@H]1O[C@H](CO)[C@@H](O)[C@H](O)[C@H]1O (stereo partly drawn) [PGA 6, 3-β-D-glucopyranosyloxy-1-hydroxy-6(E)-tetradecene-8,10,12-triyne]
Caco-2 cells
  Papp, apical to basolateral flux: higher than the paracellular transport marker mannitol
[1]
  efflux ratio at 60 min, 1 mg/mL: 6.03

## CC#CC#CC#C/C=C/CCC(CO)O[C@@H]1O[C@H](CO)[C@@H](O)[C@H](O)[C@H]1O (stereo partly drawn) [PGA 4, 2-β-D-glucopyranosyloxy-1-hydroxy-5(E)-tridecene-7,9,11-triyne]
Caco-2 cells
  Papp, apical to basolateral flux: higher than the paracellular transport marker mannitol
[1]
  efflux ratio at 60 min, 1 mg/mL: 32.1

## O=C(/C=C/c1ccc(O)c(O)c1)O[C@@H]1[C@@H](OC(=O)/C=C/c2ccc(O)c(O)c2)C[C@@](O)(C(=O)O)C[C@@H]1O [DiCQA 1, 3,4-di-O-caffeoylquinic acid]
Caco-2 cells
  Papp, apical to basolateral flux: higher than the paracellular transport marker mannitol

## CC#CC#CC#CC#CCCC(CO)O[C@@H]1O[C@H](CO)[C@@H](O)[C@H](O)[C@H]1O (stereo partly drawn) [PGA 5, 2-β-D-glucopyranosyloxy-1-hydroxytrideca-5,7,9,11-tetrayne]
db/db mice
  Increasing serum insulin, reducing blood glucose levels and glycosylated HbA1c levels: most effective compound
Caco-2 cells
  Papp, apical to basolateral flux: lower than the Papp for mannitol
Caco-2 cells; B→A, compound within EM 1 mg/mL
  Papp, basolateral to apical flux: closed to that of propranolol

## OC[C@@H](O)[C@@H](O)[C@H](O)[C@H](O)CO [mannitol, reference compound]
[1]
  Papp A→B at 60 min, 50 μM: 0.43 ± 0.1 ×10⁻⁶ cm/s
